Results published in publication PMC5641120, “Small-molecule inhibitors of PD-1/PD-L1 immune checkpoint alleviate the PD-L1-induced exhaustion of T-cells” (Oncotarget, 2017).

What was measured:
PD-1/sPD-L1 = PD-1/sPD-L1 effector assay (anti-CD3 activated ECs, luciferase); type: cell-based, human; details: anti-CD3, sPD-L1 0.6 μM, BMS compounds 0.12-3 μM; highest concentrations = 2- and 5-fold molar excess over sPD-L1; 24 h
Method: To evaluate the potential of BMS compounds in abrogating the inhibitory effect of sPD-L1 on the activation of T cells, sPD-L1 was pre-incubated with tested compounds and presented to ECs together with the anti-CD3-activating antibody.
For the evaluation of the BMS impact on T cell inhibition by soluble PD-L1, the ECs were stimulated with the anti-CD3 antibody in the presence of the recombinant human sPD-L1. For this, the 96-well white flat bottom plates were coated overnight at 4°C with 5 μg/ml of the anti-CD3 antibody or the isotype control solution in PBS. […] Then, 15 μl of the solution was added to each well of the antibody-coated plate. ECs were centrifuged and diluted to 50 000 per ml, and 60 μl of the cell solution was added to each well. The final concentration of sPD-L1 was 10 μg/ml (0.6 μM). The final concentrations of the BMS compounds were: 0.12, 0.3, 1.2 and 3 μM, giving the following BMS:sPD-L1 molar ratios: 1:5, 1:2, 2:1 and 5:1. The cells were cultured for 24 h and the luciferase activity assay was performed using the Bio-Glo Luciferase Assay System (Promega) according to the manufacturer's instructions.

human PD-L1 [1] = target: T1, human PD-L1 (Homo sapiens, UniProt Q9NZQ7); test: 1H-15N HMQC NMR titration of PD-L1; type: binding; details: 15N labeled PD-L1, line broadening upon compound addition
T1 construct: human PD-L1 (residues 18–134, C-terminal His-tag); His-tag (C); made in house
Method: Based on the two recent Bristol-Myers Squibb patents, the selection of the BMS compounds was done to obtain high diversity of the chemical structures along all modifications of distal, flexible moieties exposed to the solvent (Figure 1A). The compounds were synthesized as described previously with modifications. All compounds were tested for the interaction with PD-L1 using the ^1H-^15N HMQC NMR titration experiment with positive results, as reported elsewhere and in this manuscript (see below). In order to verify the blockade of the PD-1/PD-L1 interaction by the compounds an NMR-based AIDA was performed. Upon the PD-L1 binding the broadening of ^1H-^15N resonance signals of the ^15N labeled PD-1 is observed due to an increased transverse relaxation rate of the higher molecular weight entities. […] All the compounds efficiently disrupted the complex formed by human PD-1 and PD-L1 proteins, as visualized by the restoration of narrow ^1H-^15N signals of PD-1 ([26] and (Figure 1B)).
For further compound development it is of high importance to define the minimal fragments essential for the binding to the target protein. For this, BMS-1166 and its fragments were tested for interaction with PD-L1 using NMR method. From the six decomposition fragments tested, four retained PD-L1 binding potential (Figure 5).
Uniform ^15N labelling was obtained by expressing proteins in the M9 minimal medium containing ^15NH4Cl as the sole nitrogen source. For NMR measurements the buffer was exchanged by gel filtration to PBS pH 7.4 (PD-L1) or 25 mM sodium phosphate containing 100 mM NaCl pH 6.4 (PD-1). 10% (v/v) of D2O was added to the samples to provide the lock signal. All spectra were recorded at 300K using a Bruker Avance III 600 MHz spectrometer. The interaction of the compounds with PD-L1 was evaluated by monitoring the perturbations in chemical shifts of NMR resonances in the ^1H-^15N 2D HMQC upon titration with the compound. The ability of tested compounds to dissociate PD-L1/PD-1 was evaluated using the Antagonist Induced Dissociation Assay (AIDA). In brief, ^15N-labeled PD-1 (0.2 mM) was slightly overtitrated with the unlabeled PD-L1. The compounds were aliquoted into the resulting mixture. During the experiment the ^1H-^15N signals were monitored by the HMQC.

[2] = system: PD-1/PD-L1 immune checkpoint; test: PD1/PD-L1 checkpoint assay (ECs co-cultured with aAPCs, NFAT-luciferase reporter); type: cell-based, human; details: for effect on luciferase reporter expression (in words): ECs co-cultured with aAPCs; for RLUmax (maximal relative luminescence): Hill fit, luminescence normalized to DMSO-treated controls; for EC50: Hill fit of luciferase activity, 6 h co-culture of ECs and aAPCs
From the text: A T lymphocyte-like cell line (Jurkat) modified to constitutively express PD-1 and carrying a luciferase reporter gene driven by TCR-inducible NFAT response element (Effector Cells, ECs) was used in T cell activation experiments. When antigen-presenting surrogate CHO cells, constitutively expressing the TCR agonist and PD-L1 (aAPCs) are presented to these ECs in co-culture, TCR signaling is repressed by PD-1 and the reporter remains silenced. Agents efficiently interfering with the PD-1/PD-L1 interaction activate the expression of the reporter gene resulting in the increase in luminescence intensity.
To verify the potency of BMS compounds in the inhibition of the PD-1/PD-L1 interactions, a cell-based model of the PD-1/PD-L1 immune checkpoint blockade was used. In the assay, two model cell lines are utilized: the artificial Antigen-Presenting Cells (PD-L1^+ aAPC/CHO-K1 cells, called aAPCs) overexpressing TCR ligand and PD-L1, and T cell surrogate, a modified Jurkat T cell line overexpressing PD-1 and carrying a luciferase reporter under the control of NFAT promoter (PD-1 Effector Cells, called ECs) [30]. […] Additionally, the cells were propagated in a constant presence of Hygromycin B (50 μg/ml) and G418 (250 μg/ml) to provide a stable expression of the introduced genetic constructs. The two latter antibiotics were omitted in the experiments. Overexpression of PD-1 on ECs and PD-L1 on aAPCs was verified by flow cytometry (not shown) and the presence of the luciferase-expressing gene was verified by monitoring luciferase activity following anti-CD3 antibody stimulation. Antibiotic selection, flow cytometry and reporter expression served as cell line authentication method. The cells were periodically tested and found negative for Mycoplasma contamination using PCR-based method [31].
The aAPCs were seeded in white 96-well plates at the density of 10 000 per well in the culture medium 24 h prior to the assay. […] By this, the concentration of DMSO was kept constant in all samples. 95 μl of the medium was removed from the wells and the cells were overlaid with 40 μl of the compound dilutions. […] Following 6 h incubation at 37°C, the plates were equilibrated at room temperature for 10 min and 80 μl of the Bio-Glo reagent (Promega) was added to each well. After incubation for 10 min, luminescence was quantified using FlexStation 3 (Molecular Devices). Half maximal effective concentrations (EC50) and maximal luminescence values (RLUmax) were determined by fitting the Hill equation to the experimental data.

[3] = system: PD-1 Effector Cells (modified Jurkat T cells, ECs); test: Cytotoxicity (metabolic activity assay) against PD-1 Effector Cells; details: ECs, 48 h treatment, metabolic activity assay
Method: (§2) To define the maximum admissible concentrations of BMS compounds for the use in the cell-based assays, the toxicity of the compounds was evaluated with the use of metabolic activity assay. For this, modified Jurkat T cells (ECs) used in all further assays were exposed to the increasing concentration of the tested compounds for 48 h.
(§3) Figure 2 Cytotoxicity and activity of BMS compounds in PD-1/PD-L1 checkpoint assay (A) Cytotoxicity of BMS compounds against the PD-1 Effector Cells was tested using metabolic activity assay following the 48 h treatment of the cells with the indicated compounds. […] The graphs present relative luminescence normalized to the DMSO-treated controls and are representative of the three independent experiments. (D) The result of the fitting of Hill model to experimental data presented on panels B and C. EC50 values represent half maximal effective concentrations, and RLUmax values represent maximal relative luminescence values, and illustrate the potency of the listed molecules in restoring the activity of ECs in the assay.
(§4) 5 000 ECs were seeded on transparent 96-well plates and cultured for 48 h in the presence of increasing concentrations of the BMS compounds or DMSO as a control (the concentration of DMSO was kept constant in all samples). Following the treatment, a metabolic activity test was performed with the use of Biolog Redox Dye Mix MB (BioLog), according to the manufacturer's instructions.

[4] = system: PD-L1 aAPC/CHO-K1 cells (aAPCs); test: Toxicity towards aAPCs; type: cell-based; details: modified CHO-K1 cells (aAPCs), 48 h treatment
[5] = target: T2, sPD-L1 interaction with PD-1 receptor exposed at the cell surface (Homo sapiens, UniProt Q9NZQ7); test: Flow cytometry binding of fluorescently labeled sPD-L1 (PD-L1-Atto) to PD-1 expressing cells; type: cell-based; details: PD-L1-Atto 1.5 μM pre-incubated with 1 μM BMS compound or 125 μg/ml antibody
T2 construct: made in house; PD-1 stably overexpressed on Jurkat PD-1 Effector Cells from Promega
Method: To test if the observed effect of BMS compounds was directly associated with the decreased sPD-L1 recruitment to the cell surface of the PD-1-expressing cells, a His-tagged sPD-L1 was labeled with the Ni-NTA-conjugated fluorescent dye and flow cytometry analysis was performed. When ECs were contacted with labeled sPD-L1, a clear staining was observed (Figure 3B).
Binding of sPD-L1 (aa 18–134) to ECs was evaluated by flow cytometry. The His-tagged PD-L1 protein or its mutants were stained with NTA-Atto 647 N fluorescent dye (Sigma Aldrich) for 2 h at 22°C, at 8:1 molar ratio (protein:dye). PD-L1-Atto was formulated in 150 μl PBS with the tested compounds or antibodies. The samples were incubated for 30 min at 4°C in the dark. Meanwhile, ECs were centrifuged, washed with PBS and suspended in fresh PBS at concentration of 1 × 10^6 cells per ml. 50 μl of ECs was added to each sample and incubated on ice for additional 60 min. The final concentrations of the components were: 25 μg/ml of PD-L1 (1.5 μM), 125 μg/ml the anti-PD-L1 antibodies and control antibodies and 1 μM of the BMS compounds. The samples were analyzed using the BD FACS Verse flow cytometer and BD FACSuite v1.0.6 software.

sPD-L1 [6] = target: T3, sPD-L1 (Homo sapiens, UniProt Q9NZQ7); test: BS3 cross-linking experiment (SDS-PAGE); details: hPD-L1 10 μM, compound 1:1 molar ratio
T3 construct: human PD-L1 (residues 18–134, C-terminal His-tag); His-tag (C); made in house
Method: (§1) The formation of solution-stable PD-L1 dimers in the presence of BMS compounds was characterized previously for BMS-202 [26]. The crystal structures of BMS-1001 and −1166 bound to PD-L1 indicated similar properties of the compounds, but this required verification by in-solution assays. […] This was verified by a crosslinking experiment. sPD-L1 preincubated in the presence of a cross-linking agent (bis(sulfosuccinimidyl)suberate, BS3) migrated in SDS-PAGE as a single band corresponding to […] protein.
hPD-L1 was concentrated to 10 μM in PBS pH 7.4 and mixed with BMS-1001 or BMS-1166 in the 1:1 molar ratio, followed by the addition of the BS3 cross-linking reagent at 0.25, 0.5 or 1mM final concentration (Thermo Scientific). After 30-min incubation at room temperature, the reaction was quenched by the addition of Tris pH 7.5 to the final concentration of 25 mM. Control sample contained hPD-L1 and 1 mM BS3 reagent. The samples were analyzed by SDS-PAGE.

sPD-L1 [7] = target: T3, sPD-L1; test: Complex analysis by gel filtration (size exclusion chromatography); details: inhibitor:protein 3:1 molar ratio
Method: as §1
Superdex S75 10/30 HR column was equilibrated with 10 mM Tris pH 8.0 containing 20 mM NaCl. The column was calibrated with globular protein standards. The retention time of hPD-L1 (4 mg/ml) was determined. hPD-L1/inhibitor complexes were formed at 3:1 (inhibitor:protein) molar ratio, incubated for 15 min at room temperature and clarified by centrifugation for 10 min at 15 000 × g. The samples were analyzed in the same manner as the apo-hPD-L1.

[8] = Cytotoxicity (metabolic activity assay) against PD-1 Effector Cells; details: human, PD-1 Effector Cells (modified Jurkat T cells, ECs)
Method: as §2, §3, §4

human PD-L1 [9] = target: T1, human PD-L1; design: method as in PMID 27083005; details: shown previously; cited from earlier work
human PD-1/PD-L1 complex = target: T4, human PD-1/PD-L1 complex (Homo sapiens, UniProt Q9NZQ7); design: method as in PMID 27083005; details: shown previously; cited from earlier work
T4 construct: human PD-L1 (residues 18–134, C-terminal His-tag); His-tag (C); made in house
T4 sequence (Q9NZQ7 18-134, one chain of several): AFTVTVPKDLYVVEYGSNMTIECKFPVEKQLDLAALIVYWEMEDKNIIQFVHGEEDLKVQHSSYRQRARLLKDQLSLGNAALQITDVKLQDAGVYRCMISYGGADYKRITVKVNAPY

T1 sequence (Q9NZQ7 18-134): as the sequence (Q9NZQ7 18-134, one chain of several) above
T2 sequence (Q9NZQ7 18-134): as the sequence (Q9NZQ7 18-134, one chain of several) above
T3 sequence (Q9NZQ7 18-134): as the sequence (Q9NZQ7 18-134, one chain of several) above

In the case of nivolumab: anti-PD-1 antibody, the “restoration of sPD-L1-suppressed activation of ECs (in words)” value (“restoration” below) (PD-1/sPD-L1) is reported as “abrogated the effect of sPD-L1”.
For `Cc1c(COc2cc(O)c(C=O)cc2Cl)cccc1-c1ccc2c(c1)OCCO2` [compound 3], the “interaction with PD-L1 (1H-15N HMQC NMR)” value (human PD-L1 [1]) was “active”.
For `Cc1c(COc2cc(F)c(CNC[C@@H](O)CC(=O)O)cc2F)cccc1-c1ccc2c(c1)OCCO2` [BMS-200], the “effect on luciferase reporter expression (in words)” value (shortened to “effect”) [2] was “did not affect the reporter expression” and the “toxicity (in words)” value [3] was “moderate toxicity”.
With `Cc1cc(CN[C@H](CO)C(=O)O)c(OCc2cccc(C#N)c2)cc1OCc1cccc(-c2ccc3c(c2)OCCO3)c1C` [BMS-1001] the “toxicity (in words)” value [4] was “Low toxicity”, the “effect” value [2] was “dose-dependently induced the activity of luciferase” and the “RLUmax (maximal relative luminescence)” value [2] was 1.88 ± 0.16. The EC50 ([2]; Homo sapiens) was 0.253 ± 0.12 µM, the “restoration” value (PD-1/sPD-L1) was “completely restored cell activation” and the “staining of ECs by labeled sPD-L1 (in words)” value (from here on “staining of ECs”) [5] was “significantly decreased the intensity of staining”. The “interaction with PD-L1 (1H-15N HMQC NMR)” value (human PD-L1 [1]) was “induced linewidth broadening”, the “sPD-L1 dimer formation by cross-linking (SDS-PAGE)” value (sPD-L1 [6]) was “two bands in SDS-PAGE analysis, corresponding to sPD-L1 monomer and a dimer” and the “sPD-L1 retention time in size exclusion chromatography” value (sPD-L1 [7]) was “significantly shortened”. It also gave an EC50 at 48 h [8] of 33.4 µM.
In the case of `COc1cc(OCc2cccc(-c3ccccc3)c2C)cc(OC)c1CN[C@@H](CO)C(C)C` [BMS-242], the “restoration” value (PD-1/sPD-L1) is reported as “unspecific decrease in the readout level” and the EC50 at 48 h [8] is reported as 3 to 6 µM.
For durvalumab: anti-PD-L1 antibody, the EC50 [2] was 0.000333 ± 6.8e-05 µM, the “RLUmax (maximal relative luminescence)” value [2] was 2.94 ± 0.08 and the “staining of ECs” value [5] was “significantly decreased the staining”.
For `Cc1c(CO)cccc1-c1ccc2c(c1)OCCO2` [compound 4], the “interaction with PD-L1 (1H-15N HMQC NMR)” value (human PD-L1 [1]) was “active”.
With `c1ccc2c(c1)OCCO2` [compound 5] the “interaction with PD-L1 (1H-15N HMQC NMR)” value (human PD-L1 [1]) was “not-active”.
In the case of `Cc1c(COc2cc(OCc3cccc(C#N)c3)c(C=O)cc2Cl)cccc1-c1ccc2c(c1)OCCO2` [compound 2], the “interaction with PD-L1 (1H-15N HMQC NMR)” value (human PD-L1 [1]) is reported as “active”.
For `Cc1c(COc2ccc(CN3CCCCC3C(=O)O)cc2Br)cccc1-c1ccccc1` (stereo not drawn) [BMS-8], the “binding to PD-L1” value (human PD-L1 [9]) is given as “bind to PD-L1”, the “dissociation of human PD-1/PD-L1 complex in vitro” value (human PD-1/PD-L1 complex) is given as “efficiently dissociate the human PD-1/PD-L1 complex” and the “toxicity (in words)” value [3] is given as “moderate toxicity”.
In the case of `Cc1cccc(CBr)c1C` [compound 6], the “interaction with PD-L1 (1H-15N HMQC NMR)” value (human PD-L1 [1]) is reported as “not-active”.
In the case of atezolizumab: anti-PD-L1 antibody, the EC50 [2] is reported as 0.00042 ± 4.9e-05 µM, the “RLUmax (maximal relative luminescence)” value [2] is reported as 2.72 ± 0.02 and the “staining of ECs” value [5] is reported as “significantly decreased the staining”.
For `Cc1c(COc2cc(OCc3cccc(C#N)c3)c(CN3C[C@H](O)C[C@@H]3C(=O)O)cc2Cl)cccc1-c1ccc2c(c1)OCCO2` [BMS-1166], the “toxicity (in words)” value [4] was “Low toxicity”, the “effect” value [2] was “dose-dependently induced the activity of luciferase” and the “RLUmax (maximal relative luminescence)” value [2] was 1.72 ± 0.03. The EC50 ([2]; Homo sapiens) was 0.276 ± 0.029 µM, the “staining of ECs” value [5] was “significantly decreased the intensity of staining” and the “interaction with PD-L1 (1H-15N HMQC NMR)” value (human PD-L1 [1]) was “induced linewidth broadening”. For the same compound, the “interaction with PD-L1 (1H-15N HMQC NMR)” value (human PD-L1 [1]; listed as 1) was “active”.
